Earlier results as cited in US20150250776A1, “COMPOSITIONS AND METHODS FOR ORAL DELIVERY OF ENCAPSULATED 3-AMINOPYRIDINE-2-CARBOXALDEHYDE PARTICLES” (NANOTHERAPEUTICS, INC., priority 2014, published 2015).

Key:
[1] = system: cell lines selected for resistance to hydroxyurea
tumor cell lines = tumor cell lines compared with a fibroblast cell line

solubility in DMSO (DMSO): soluble
solubility in aqueous solutions (aqueous solutions): poor solubility
Compound: Nc1cccnc1C=O [3-AP, 3-aminopyridine-2-carboxaldehyde]
activity in hydroxyurea-resistant cell lines [1]: active
cytotoxic effects, tumor versus fibroblast cell line (tumor cell lines): preferential cytotoxic effects
